{
  "source": "patent US20210393547A1",
  "about": "“USE OF EMODIN IN TREATING RETINAL ISCHEMIA OR A DISEASE, CONDITION, OR DISORDER ASSOCIATED WITH RETINAL ISCHEMIA” (priority 2020, published 2021)",
  "key": {"[1]": {"system": "retinal ischemia in Wistar rats", "experiment": "Cresyl violet stained retinal thickness after retinal ischemia/reperfusion", "type": "in vivo, rat", "conditions": "n=10, mean±SE", "procedure": "Emodin was purchased from Sigma-Aldrich (E7881; 90%; storage at 2-8° C.; from Frangula bark; St. Louis, Mo., United States). Drug administration for different procedures, namely ERG, fluorogold RGC labelling, cresyl violet retinal staining and Western blot assays, were described in Tables 3 to 6. Vehicle or emodin (5 μL) was administered via an intravitreous injection route so that these agents were then able to be directly diffused to the target. Emodin was dissolved in vehicle (DMSO:distilled water=1:3). The defined final cellular concentrations of administered drug were 0.25 or 0.5 μM, which were achieved after 40 times dilution from the stock concentrations, namely 10 or 20 μM, based on an arbitrary definition of the vitreous volume as 200 μL. To test a wider range of dose-response, 4 μM of emodin was thus added in the animal experiments. The Vehicle+IR and Emo+IR groups (pre-ischemic administration of emodin 4, 10 or 20 μM) were subjected to following the experimental procedures; these were initial pre-ischemic intravitreous injection (vehicle or emodin), retinal ischemia induction 1 day later, and sacrifice of the animal on the following day to allow the various post-mortem procedures except ERG. In the post-ischemic treatment group, in order to decrease the number of animals used, the present invention only used a single emodin concentration of 20 μM. Furthermore, intravitreous emodin was given 1 day after initial retinal ischemia induction and animals were sacrificed the following day to allow the performance of various post-mortem procedures as mentioned above. The IOP procedure used raised the IOP and was designed to cause retinal ischemia in Wistar rats and simulate ischemic retinal disorders. The rats were anesthetized and constrained with a sterotaxic frame. A 30-gauge needle connected to an elevated saline bottle was attached to anterior chamber of the rat's eye. The pressure exerted by the saline inside the bottle was controlled to 120 mmHg. This procedure was conducted for 1 hour. Successful retinal ischemia induction was confirmed by observing that the whitening of the retina took place. Throughout the experiments, the animals were kept on heat mats to maintain their temperature. The sham procedure involved keeping the pressure in saline bottle 0 mmHg. After the aforementioned sacrifice of rats, the animals underwent intracardial perfusion with normal saline. The eyeballs were then enucleated, fixed with 4% paraformaldehyde for 1 day at 4° C., dehydrated with ethanol, embedded in paraffin (Tissue-Tek TEC 5; Sakura) and sectioned into 5 μm thickness slices. The sectioned samples were then stained with cresyl violet and examined using a light microscope (Leica). All sectioned retinal samples were photographed under the same magnification (Ilford Pan-F plus film, 50 ASA). The thickness of a retina was determined by sectioning retinal samples at the same distance (1.5 mm from the disc). To evaluate the degree of the injury caused by retinal ischemia, the whole retinal thickness [from the inner limiting membrane (ILM) to the retinal pigment epithelium (RPE) layer] and the inner retinal thickness [from the ILM to the inner nuclear layer (INL)] were measured. All the measurements were carried out by an expert who was unaware of the experimental conditions used to treat the samples."}, "[2]": {"system": "retinal ganglion cells (RGC) in ischemic retina of Wistar rats", "experiment": "Retrograde fluorogold labeling of RGCs after retinal ischemia/reperfusion", "type": "in vivo, rat", "conditions": "n=4, mean±SE", "procedure": "Emodin was purchased from Sigma-Aldrich (E7881; 90%; storage at 2-8° C.; from Frangula bark; St. Louis, Mo., United States). Drug administration for different procedures, namely ERG, fluorogold RGC labelling, cresyl violet retinal staining and Western blot assays, were described in Tables 3 to 6. Vehicle or emodin (5 μL) was administered via an intravitreous injection route so that these agents were then able to be directly diffused to the target. Emodin was dissolved in vehicle (DMSO:distilled water=1:3). The defined final cellular concentrations of administered drug were 0.25 or 0.5 μM, which were achieved after 40 times dilution from the stock concentrations, namely 10 or 20 μM, based on an arbitrary definition of the vitreous volume as 200 μL. To test a wider range of dose-response, 4 μM of emodin was thus added in the animal experiments. The Vehicle+IR and Emo+IR groups (pre-ischemic administration of emodin 4, 10 or 20 μM) were subjected to following the experimental procedures; these were initial pre-ischemic intravitreous injection (vehicle or emodin), retinal ischemia induction 1 day later, and sacrifice of the animal on the following day to allow the various post-mortem procedures except ERG. […] Finally, the samples were then analyzed by fluorescent microscopy. The RGC density was defined as the total RGC amount divided by the whole retinal area and its mean was then calculated."}, "[3]": {"conditions": "Emo10+IR: pre-ischemic intravitreous 10 μM emodin"}, "[4]": {"conditions": "Emo20+IR: pre-ischemic intravitreous 20 μM emodin"}, "[5]": {"conditions": "IR+Emo20: post-ischemic intravitreous 20 μM emodin"}},
  "data": [
    {"compound": "Cc1cc(O)c2c(c1)C(=O)c1cc(O)cc(O)c1C2=O", "note": "[emodin, 6-methyl-1,3,8-trihydroxyanthraquinone]", "values": [
      {"measurement": "inner retina thickness", "setting": "[1]; Emo4+IR: pre-ischemic intravitreous 4 μM emodin, Sham 79.90, Vehicle+IR 20.97", "value": "38.60±1.01", "unit": "μm"},
      {"measurement": "whole retina thickness", "setting": "[1]; Emo4+IR: pre-ischemic intravitreous 4 μM emodin, Sham 186.50, Vehicle+IR 71.80", "value": "87.40±0.60", "unit": "μm"},
      {"measurement": "inner retina thickness", "setting": "[1]; [3]", "value": "70.05±0.60", "unit": "μm"},
      {"measurement": "whole retina thickness", "setting": "[1]; [3]", "value": "153.20±1.48", "unit": "μm"},
      {"measurement": "inner retina thickness", "setting": "[1]; [4]", "value": "70.65±2.06", "unit": "μm"},
      {"measurement": "whole retina thickness", "setting": "[1]; [4]", "value": "170.10±0.10", "unit": "μm"},
      {"measurement": "inner retina thickness", "setting": "[1]; [5]", "value": "69.65±0.68", "unit": "μm"},
      {"measurement": "whole retina thickness", "setting": "[1]; [5]", "value": "125.45±1.68", "unit": "μm"},
      {"measurement": "RGC density (retrograde fluorogold labeled)", "setting": "[2]; Emo10+IR: pre-ischemic intravitreous 10 μM emodin, P<0.01, Sham 5323.53, Vehicle+IR 2069.12", "value": "3345.59±206.80 /0.17 mm^2"},
      {"measurement": "RGC density (retrograde fluorogold labeled)", "setting": "[2]; Emo20+IR: pre-ischemic intravitreous 20 μM emodin, P<0.001", "value": "4623.53±179.48 /0.17 mm^2"}
    ]}
  ]
}
